Experimental data from ChEMBL document CHEMBL6127052, “Discovery of membrane-targeting amphiphilic honokiol derivatives containing an oxazolethione moiety to combat methicillin-resistant Staphylococcus aureus (MRSA) infections” (Eur J Med Chem, 2024).
Calls of active or inactive are those of the source. The rule behind the calls is not given here.

Assays:
Staphylococcus aureus [1] = experiment: Antibacterial activity against methicillin-resistant Staphylococcus aureus N315 by CLSI based micro-broth dilution method; format: functional
[2] = Hemolytic activity in sheep erythrocytes incubated for 1 hr by absorbance based assay; format: toxicity, cell-based, Ovis aries, Erythrocyte
Staphylococcus aureus [3] = experiment: Antibacterial activity against methicillin-resistant Staphylococcus aureus clinical isolate M12 by CLSI based micro-broth dilution method; format: functional
Staphylococcus aureus [4] = experiment: Antibacterial activity against methicillin-resistant Staphylococcus aureus clinical isolate M17 by CLSI based micro-broth dilution method; format: functional
Staphylococcus aureus [5] = experiment: Antibacterial activity against methicillin-resistant Staphylococcus aureus clinical isolate M21 by CLSI based micro-broth dilution method; format: functional
Staphylococcus aureus [6] = experiment: Antibacterial activity against Staphylococcus aureus ATCC 29213 by CLSI based micro-broth dilution method; format: functional
[7] = Selectivity index, ratio of HC50 for hemolytic activity in sheep erythrocytes to MIC for antibacterial activity against Staphylococcus aureus ATCC 29213; format: toxicity, cell-based, RBC
Staphylococcus aureus [8] = experiment: Antibacterial activity against methicillin-resistant Staphylococcus aureus clinical isolate M14 by CLSI based micro-broth dilution method; format: functional
Staphylococcus aureus [9] = experiment: Antibacterial activity against methicillin-resistant Staphylococcus aureus clinical isolate M23 by CLSI based micro-broth dilution method; format: functional
Staphylococcus aureus [10] = experiment: Antibacterial activity against methicillin-resistant Staphylococcus aureus clinical isolate M16 by CLSI based micro-broth dilution method; format: functional
Staphylococcus aureus [11] = experiment: Antibacterial activity against methicillin-resistant Staphylococcus aureus clinical isolate M13 by CLSI based micro-broth dilution method; format: functional
Staphylococcus aureus [12] = experiment: Antibacterial activity against methicillin-resistant Staphylococcus aureus clinical isolate M11 by CLSI based micro-broth dilution method; format: functional
Staphylococcus aureus [13] = experiment: Antibacterial activity against methicillin-resistant Staphylococcus aureus clinical isolate M22 by CLSI based micro-broth dilution method; format: functional
Staphylococcus aureus [14] = experiment: Antibacterial activity against methicillin-resistant Staphylococcus aureus clinical isolate M20 by CLSI based micro-broth dilution method; format: functional
Escherichia coli = experiment: Antibacterial activity against Escherichia coli ATCC 25922 by CLSI based micro-broth dilution method; format: functional
Staphylococcus aureus [15] = experiment: Induction of resistance development in Staphylococcus aureus ATCC 29213 assessed as fold increase in MIC at 0.5 times MIC treated for 18 days of consecutive passages; format: functional; conditions: time 18 day
Staphylococcus aureus [16] = experiment: Induction of resistance development in Staphylococcus aureus ATCC 29213 assessed as increase in MIC at 0.5 times MIC treated for 4 days of consecutive passages; format: functional, organism-based; conditions: time 4.0 day

| Compound | MIC (Staphylococcus aureus [1]) [µg/mL] | HC50 at 1 h [2] [µg/mL] | MIC (Staphylococcus aureus [3]) [µg/mL] | MIC (Staphylococcus aureus [4]) [µg/mL] | MIC (Staphylococcus aureus [5]) [µg/mL] | MIC (Staphylococcus aureus [6]) [µg/mL] | selectivity ratio [7] | MIC (Staphylococcus aureus [8]) [µg/mL] | MIC (Staphylococcus aureus [9]) [µg/mL] | MIC (Staphylococcus aureus [10]) [µg/mL] | MIC (Staphylococcus aureus [11]) [µg/mL] | MIC (Staphylococcus aureus [12]) [µg/mL] | MIC (Staphylococcus aureus [13]) [µg/mL] | MIC (Staphylococcus aureus [14]) [µg/mL] | MIC (Escherichia coli) [µg/mL] | fold change (FC) (Staphylococcus aureus [15]) | Activity (Staphylococcus aureus [16]) |
| --- | --- | --- | --- | --- | --- | --- | --- | --- | --- | --- | --- | --- | --- | --- | --- | --- | --- |
| C=CCc1cc(-c2ccc(OCCC[N+](C)(C)CC(=O)NCCCC)c(CC=C)c2)c2oc(=S)n(Cc3ccccc3Br)c2c1.[Br-] | 128 | > 160 | 16 | 64 | 32 | 128 | > 1.3 | 128 | 64 | 64 | 128 | 64 | 32 | 64 | > 128 | – | – |
| C=CCc1cc(-c2ccc(OCCC[N+](C)(C)CC(=O)NCCCC)c(CC=C)c2)c2oc(=S)n(Cc3ccc(Cl)c(Cl)c3)c2c1.[Br-] | 32 | > 160 | 32 | 128 | 16 | 64 | > 2.5 | 32 | 32 | 32 | 64 | 32 | 64 | 32 | > 128 | – | – |
| C=CCc1cc(-c2ccc(OCCC[N+](C)(C)CC(=O)NCCCC)c(CC=C)c2)c2oc(=S)n(Cc3ccccc3Cl)c2c1.[Br-] | 16 | 965 | 4 | 16 | 4 | 4 | 241 | 16 | 4 | 4 | 8 | 4 | 8 | 8 | > 128 | – | – |
| C=CCc1cc(-c2ccc(OCCC[N+](C)(C)CC(=O)NCCCC)c(CC=C)c2)c2oc(=S)n(Cc3cccc(Br)c3)c2c1.[Br-] | 16 | > 160 | 8 | 32 | 16 | 16 | > 10 | 8 | 16 | 8 | 8 | 8 | 32 | 8 | > 128 | – | – |
| C=CCc1cc(-c2ccc(OCCC[N+](C)(C)CC(=O)NCCCC)c(CC=C)c2)c2oc(=S)n(Cc3ccc(F)c(F)c3)c2c1.[Br-] | 16 | 68.4 | 4 | 4 | 4 | 4 | 10.4 | 2 | 4 | 4 | 2 | 4 | 4 | 4 | > 128 | – | – |
| CCn1cc(C(=O)O)c(=O)c2cc(F)c(N3CCNCC3)cc21 [NORFLOXACIN] | – | – | – | – | – | – | – | – | – | – | – | – | – | – | – | 128 | Active |
| C=CCc1cc(-c2ccc(OCCC[N+](C)(C)CC(=O)NCCCC)c(CC=C)c2)c2oc(=S)n(Cc3ccc(F)c(Br)c3)c2c1.[Br-] | 16 | 42.1 | 4 | 16 | 4 | 16 | 2.6 | 8 | 8 | 8 | 8 | 8 | 32 | 4 | > 128 | – | – |
| C=CCc1cc(-c2ccc(OCCC[N+](C)(C)CC(=O)NCCCC)c(CC=C)c2)c2oc(=S)n(Cc3ccccc3F)c2c1.[Br-] | 8 | > 160 | 4 | 8 | 4 | 8 | > 20 | 8 | 8 | 8 | 8 | 4 | 32 | 8 | > 128 | – | – |
| C=CCc1cc(-c2ccc(OCCC[N+](C)(C)CC(=O)NCCCC)c(CC=C)c2)c2oc(=S)n(Cc3ccc(C(F)(F)F)cc3)c2c1.[Br-] | 16 | > 160 | 4 | 16 | 8 | 8 | > 20 | 8 | 8 | 8 | 4 | 4 | 16 | 4 | > 128 | – | – |
| C=CCc1cc(-c2ccc(OCCC[N+](C)(C)CC(=O)NCCCC)c(CC=C)c2)c2oc(=S)n(Cc3ccc(Cl)cc3Cl)c2c1.[Br-] | 128 | > 160 | > 128 | > 128 | > 128 | > 128 | 1.3 | > 128 | > 128 | > 128 | > 128 | > 128 | > 128 | > 128 | > 128 | – | – |
| C=CCc1cc(-c2ccc(OCCC[N+](C)(C)CC(=O)NCCCC)c(CC=C)c2)c2oc(=S)n(Cc3ccc(Cl)cc3Br)c2c1.[Br-] | 128 | 95.8 | > 128 | > 128 | 128 | > 128 | 0.7 | > 128 | 128 | 128 | > 128 | 128 | 128 | > 128 | > 128 | – | – |
